Measurements reported in patent publication US5049559A, “Thieno-triazolo-diazepine derivatives useful as anti-ischemic agents” (priority 1989, dated 1991).
pIC50: −log10 of the molar value.

Experiments:
[1] = Global ischemia on gerbils; assay type: in vivo; settings: Meriones unguiculatus, 168 h, carotides clamped 10 minutes, hippocampes one week later, 3H-PK 11195, percentage of protection compared to control
Experimental: 3) Global ischemia on gerbils For this test, males gerbils were anaesthetized with brietal at the doses of 35 mg/kg IP; thereafter, both carotides were clamped for 10 minutes, then the clamping was released. Treated animals received each 10 mg/kg of the compounds of one of the examples. One week later, the animals were killed and both hippocampes were taken, weighed and frozen at -80° C. After crushing with 1 ml of TRIS-HCl pH 7.4 for 30 seconds, aliquots of each 50 μl of this preparation were incubed in each 1 ml of TRIS-HCl buffer containing ^3 H-PK 11195 at 2 nM (90 Ci/mmole, NENE, Germany) for 1 hour at 25° C. For each preparation, 3 determinations were made. The density of omega 3 sites (marked by the specific ^3 H-PK 11195 marker) are expressed in f-moles of PK 11195/mg of fresh tissues and converted in percentage of protection compared to control.

benzodiazepine receptors = experiment: Inhibition of the binding to benzodiazepine receptors; settings: rat brains, 1 hour 30 minutes at 4° C., tracers 3H-RO-15-1788 and 3H-RO-5-4864, Table I, read-out: BDZ receptors
Text: 2) Inhibition of the binding to benzodiazepine receptors
The interest of the previous experimentation depends on the results obtained in this experimentation: as a compound of the invention has a benzodiazepine like structure, it is important to check whether the specific benzodiazepine activity would not appear at the dose where platelet aggregation was inhibited.
Therefore, this experimentation has been conducted according to the method of MOHLER H. and RICHARD J. G. Agonist and antagonist benzodiazepine receptor interaction in vitro, Nature, vol. 294, 763-765, 1981.
This experimentation was conducted on rat brains incubated 1 hour 30 minutes at 4° C. using ^3 H-RO-15-1788 and ^3 H-RO-5-4864 (NEN) as tracers and […] and RO-5-4864 as reference antagonists.
The results in molecular concentration are reported in the table I, on the right hand column.

[2] = test system: platelet aggregation induced by PAF; experiment: Inhibition of platelet aggregation induced by PAF; assay type: cell-based; settings: Oryctolagus cuniculus, male New Zealand rabbits, Table I
Experimental: 1) Inhibition of platelet aggregation induced by PAF
This experimentation was conducted according to the method of R. KINLOUGH. RATHBONE, J. P. CAZENAVE, M. PACKHAM and F. MUSTARD, Lab. Invest. 48, 98, 1980. In this test, New Zealand rabbits were used (male New Zealand rabbits of an average weight of 5 kg).
The determinations are made on a chrono-log Coultronics aggregometer, at […] coupled with a graphic recorder; the results of these determinations (in molecular concentration) are reported on the table I on the central column.

SMILES | inhibition in vivo at 10 mg/kg [1] [%] | pIC50 (benzodiazepine receptors) | pIC50 [2]
Cc1nnc2n1-c1sc3c(c1C(c1ccccc1Cl)=NC2)CCN(C(=O)CSC(C)C)C3 [Example 1, 6-(2-chlorophenyl)-9-(isopropylthiomethylcarbonyl)-7,8,9,10-tetrahydro-1-methyl-4H-pyrido [4',3':4,5] thieno [3,2-f] 1,2,4-triazolo [4,3-a] 1,4-diazepine] | 54.2 | 5.17 | 7.60
Cc1nnc2n1-c1sc3c(c1C(c1ccccc1Cl)=NC2)CCN(C(=S)CSC(C)C)C3 [Example 2, 6-(2-chlorophenyl)-9-(isopropylthiomethyl-thiocarbonyl)-7,8,9,10-tetrahydro-1-methyl-4H-pyrido [4',3':4,5] thieno [3,2-f] 1,2,4-triazolo [4,3-a] 1,4-diazepine] | 36.3 | 4.32 | 7.55
Cc1nnc2n1-c1sc3c(c1C(c1ccccc1Cl)=NC2)CCN(C(=O)CSC(C)(C)C)C3 [Example 3, 6-(2-chlorophenyl)-9-(t.butylthiomethyl-carbonyl)-7,8,9, 10-tetrahydro-1-methyl-4H-pyrido [4',3':4,5] thieno [3,2-f] 1,2,4-triazolo[4,3-a] 1,4-diazepine] | 34.3 | 5.64 | 7.77
Cc1nnc2n1-c1sc3c(c1C(c1ccccc1Cl)=NC2)CCN(C(=S)CSC(C)(C)C)C3 [Example 4, 6-(2-chlorophenyl)-9-(t.butylthiomethyl-thiocarbonyl)-7,8,9, 10-tetrahydro-1-methyl-4H-pyrido [4',3':4,5] thieno [3,2-f] 1,2,4-triazolo[4,3-a] 1,4-diazepine] | 38.1 | 5.81 | 6.30
CCCCCCCCCCCCCCCCSCC(=O)N1CCc2c(sc3c2C(c2ccccc2Cl)=NCc2nnc(C)n2-3)C1 [Example 5, 6-(2-chlorophenyl)-9-(hexadecylthiomethyl-carbonyl)-7,8,9, 10-tetrahydro-1-methyl-4H-pyrido [4',3':4,5] thieno [3,2-f] 1,2,4-triazolo[4,3-a] 1,4-diazepine] | 29.4 | 6.92 | 8.13
CCCCCCCCCCCCCCCCSCC(=S)N1CCc2c(sc3c2C(c2ccccc2Cl)=NCc2nnc(C)n2-3)C1 [Example 6, 6-(2-chlorophenyl)-9-(hexadecylthiomethyl-thiocarbonyl); 7,8,9, 10-tetrahydro-1-methyl-4H-pyrido [4',3':4,5] thieno [3,2-f] 1,2,4-triazolo[4,3-a] 1,4-diazepine] | 27.8 | 6.04 | 8.02
Cc1nnc2n1-c1sc3c(c1C(c1ccccc1Cl)=NC2)CCN(C(=O)CSc1ccccc1)C3 [Example 7, 6-(2-chlorophenyl)-9-(phenyl-thiomethyl-carbonyl)-7,8,9, 10-tetrahydro-1-methyl-4H-pyrido [4',3':4,5] thieno [3,2-f] 1,2,4-triazolo[4,3-a] 1,4-diazepine] | 14.8 | 5.68 | 6.29
Cc1nnc2n1-c1sc3c(c1C(c1ccccc1Cl)=NC2)CCN(C(=S)CSc1ccccc1)C3 [Example 8, 6-(2-chorophenyl)-9-(phenyl-thiomethyl-thiocarbonyl)-7,8,9, 10-tetrahydro-1-methyl-4H-pyrido [4',3':4,5] thieno [3,2-f] 1,2,4-triazolo[4,3-a] 1,4-diazepine] | 26.2 | 5.13 | 7.98
COc1ccc(SCC(=O)N2CCc3c(sc4c3C(c3ccccc3Cl)=NCc3nnc(C)n3-4)C2)cc1 [Example 9, 6-(2-chlorophenyl)-9-(4-methoxyphenylthiomethyl-carbonyl)-7,8,9, 10-tetrahydro-1-methyl-4H-pyrido [4',3':4,5] thieno [3,2-f] 1,2,4-triazolo[4,3-a] 1,4-diazepine] | 31.2 | 5.57 | 7.47
COc1ccc(SCC(=S)N2CCc3c(sc4c3C(c3ccccc3Cl)=NCc3nnc(C)n3-4)C2)cc1 [Example 10, 6-(2-chlorophenyl)-9-(4-methoxyphenylthiomethyl-thiocarbonyl)-7,8,9, 10-tetrahydro-1-methyl-4H-pyrido [4',3':4,5] thieno [3,2-f] 1,2,4-triazolo[4,3-a] 1,4-diazepine] | 10.3 | 4.18 | 6.77
COc1ccc(SCC(=O)N2CCc3c(sc4c3C(c3ccccc3Cl)=NCc3nnc(C)n3-4)C2)cc1OC [Example 11, 6-(2-chlorophenyl)-9-(3,4-dimethoxyphenylthiomethyl-carbonyl)-7,8,9, 10-tetrahydro-1-methyl-4H-pyrido [4',3':4,5] thieno [3,2-f] 1,2,4-triazolo[4,3-a] 1,4-diazepine] | 46.5 | 5.85 | 7.58
COc1ccc(SCC(=S)N2CCc3c(sc4c3C(c3ccccc3Cl)=NCc3nnc(C)n3-4)C2)cc1OC [Example 12, 6-(2-chlorophenyl)-9-(3,4-dimethoxyphenylthiomethyl-thiocarbonyl)-7,8,9, 10-tetrahydro-1-methyl-4H-pyrido [4',3':4,5] thieno [3,2-f] 1,2,4-triazolo [4,3-a] 1,4-diazepine] | 34.1 | 6.06 | 7.50
COc1cc(SCC(=O)N2CCc3c(sc4c3C(c3ccccc3Cl)=NCc3nnc(C)n3-4)C2)cc(OC)c1OC [Example 13, 6-(2-chlorophenyl)-9-(3,4,5-trimethoxyphenylthiomethylcarbonyl)-7,8,9, 10-tetrahydro-1-methyl-4H-pyrido [4',3':4,5] thieno [3,2-f] 1,2,4-triazolo[4,3-a] 1,4-diazepine] | 32.1 | 4.26 | 7.73
COc1cc(SCC(=S)N2CCc3c(sc4c3C(c3ccccc3Cl)=NCc3nnc(C)n3-4)C2)cc(OC)c1OC [Example 14, 6-(2-chlorophenyl)-9-(3,4,5-trimethoxyphenylthiomethyl-thiocarbonyl)-7,8,9, 10-tetrahydro-1-methyl-4H-pyrido [4',3':4,5] thieno [3,2-f] 1,2,4-triazolo [4,3-a] 1,4-diazepine] | 19.7 | 5.82 | 8.04
COc1ccc(SCC(=O)N2CCc3c(sc4c3C(c3ccccc3Cl)=NCc3nnc(C)n3-4)C2)c(OC)c1OC [Example 15, 6-(2-chlorophenyl)-9-(2,3,4-trimethoxyphenylthiomethyl-carbonyl)-7,8,9, 10-tetrahydro-1-methyl-4H-pyrido [4',3':4,5] thieno [3,2-f] 1,2,4-triazolo[4,3-a] 1,4-diazepine] | 35.8 | 5.44 | 6.92
COc1ccc(SCC(=S)N2CCc3c(sc4c3C(c3ccccc3Cl)=NCc3nnc(C)n3-4)C2)c(OC)c1OC [Example 16, 6-(2-chlorophenyl)-9-(2,3,4-trimethoxyphenylthiomethylthiocarbonyl)-7,8,9, 10-tetrahydro-1-methyl-4H-pyrido [4',3':4,5] thieno [3,2-f] 1,2,4-triazolo [4,3-a] 1,4-diazepine] | 29.3 | 6.22 | 7.27
Cc1nnc2n1-c1sc3c(c1C(c1ccccc1Cl)=NC2)CCN(C(=O)CSc1ccc(C(C)(C)C)cc1)C3 [Example 17, 6-(2-chlorophenyl)-9-(4-t.butylphenylthiomethyl-carbonyl)-7,8,9, 10-tetrahydro-1-methyl-4H-pyrido [4',3':4,5] thieno [3,2-f] 1,2,4-triazolo[4,3-a] 1,4-diazepine] | 11.1 | 5.33 | 8.06
Cc1nnc2n1-c1sc3c(c1C(c1ccccc1Cl)=NC2)CCN(C(=S)CSc1ccc(C(C)(C)C)cc1)C3 [Example 18, 6-(2-chlorophenyl)-9-(4-t.butylphenylthiomethyl-thiocarbonyl)-7,8,9, 10-tetrahydro-1-methyl-4H-pyrido [4',3':4,5] thieno [3,2-f] 1,2,4-triazolo[4,3-a] 1,4-diazepine] | 12.6 | 4.36 | 7.64
